What was measured:
Type in all cases: in vivo
[1] = test system: corn (Zea mays); test: Test C preemergence, corn; settings: 0 is no effect, 100 is complete control
Description: (§1) Seeds of plant species selected from blackgrass (Alopecurus myosuroides), corn (Zea mays), foxtail, giant (giant foxtail, Setaria faberi), goosegrass (Eleusine indica), kochia (Bassia scoparia), oat, wild (wild oat, Avena fatua), pigweed, palmer (palmer amaranth, Amaranthus palmeri), ragweed (common ragweed, Ambrosia artemisiifolia), ryegrass, Italian (Italian ryegrass, Lolium multiflorum), soybean (Glycine max) and wheat (Triticum aestivum) were planted into a blend of loam soil and sand and treated preemergence with a directed soil spray using test chemicals formulated in a non-phytotoxic solvent mixture which included a surfactant.
(§2) At the same time, plants selected from these crop and weed species and also galium (catchweed bedstraw, Galium aparine) and horseweed (Erigeron canadensis) were planted in pots containing the same blend of loam soil and sand and treated with postemergence applications of test chemicals formulated in the same manner. Plants ranged in height from 2 to 10 cm and were in the one- to two-leaf stage for the postemergence treatment. Treated plants and untreated controls were maintained in a greenhouse for 10 or 12 days, after which time all treated plants were compared to untreated controls and visually evaluated for injury. Plant response ratings, summarized in Table A, are based on a 0 to 100 scale where 0 is no effect and 100 is complete control. A dash (-) response means no test result.

[2] = test system: foxtail, giant (giant foxtail, Setaria faberi); test: Test C preemergence, giant foxtail; settings: 0 is no effect, 100 is complete control
Description: as §1, §2

[3] = test system: goosegrass (Eleusine indica); test: Test C preemergence, goosegrass; settings: 0 is no effect, 100 is complete control
Description: as §1, §2

[4] = test system: kochia (Bassia scoparia); test: Test C preemergence, kochia; settings: 0 is no effect, 100 is complete control
Description: as §1, §2

[5] = test system: oat, wild (wild oat, Avena fatua); test: Test C preemergence, wild oat; settings: 0 is no effect, 100 is complete control
Description: as §1, §2

[6] = test system: pigweed, palmer (palmer amaranth, Amaranthus palmeri); test: Test C preemergence, palmer amaranth; settings: 0 is no effect, 100 is complete control
Description: as §1, §2

[7] = test system: ragweed (common ragweed, Ambrosia artemisiifolia); test: Test C preemergence, ragweed; settings: 0 is no effect, 100 is complete control
Description: as §1, §2

[8] = test system: ryegrass, Italian (Italian ryegrass, Lolium multiflorum); test: Test C preemergence, Italian ryegrass; settings: 0 is no effect, 100 is complete control
Description: as §1, §2

[9] = test system: soybean (Glycine max); test: Test C preemergence, soybean; settings: 0 is no effect, 100 is complete control
Description: as §1, §2

[10] = test system: wheat (Triticum aestivum); test: Test C preemergence, wheat; settings: 0 is no effect, 100 is complete control
Description: as §1, §2

[11] = test system: blackgrass (Alopecurus myosuroides); test: Test C postemergence, blackgrass; settings: visual injury, 0 to 100 scale (0 no effect, 100 complete control)
Description: as §1, §2

[12] = test system: corn (Zea mays); test: Test C postemergence, corn; settings: visual injury, 0 to 100 scale (0 no effect, 100 complete control)
Description: as §1, §2

[13] = test system: foxtail, giant (giant foxtail, Setaria faberi); test: Test C postemergence, giant foxtail; settings: visual injury, 0 to 100 scale (0 no effect, 100 complete control)
Description: as §1, §2

[14] = test system: goosegrass (Eleusine indica); test: Test C postemergence, goosegrass; settings: visual injury, 0 to 100 scale (0 no effect, 100 complete control)
Description: as §1, §2

[15] = test system: kochia (Bassia scoparia); test: Test C postemergence, kochia; settings: visual injury, 0 to 100 scale (0 no effect, 100 complete control)
Description: as §1, §2

[16] = test system: oat, wild (wild oat, Avena fatua); test: Test C postemergence, wild oat; settings: visual injury, 0 to 100 scale (0 no effect, 100 complete control)
Description: as §1, §2

[17] = test system: pigweed, palmer (palmer amaranth, Amaranthus palmeri); test: Test C postemergence, palmer amaranth; settings: visual injury, 0 to 100 scale (0 no effect, 100 complete control)
Description: as §1, §2

[18] = test system: ragweed (common ragweed, Ambrosia artemisiifolia); test: Test C postemergence, ragweed; settings: visual injury, 0 to 100 scale (0 no effect, 100 complete control)
Description: as §1, §2

[19] = test system: ryegrass, Italian (Italian ryegrass, Lolium multiflorum); test: Test C postemergence, Italian ryegrass; settings: visual injury, 0 to 100 scale (0 no effect, 100 complete control)
Description: as §1, §2

[20] = test system: soybean (Glycine max); test: Test C postemergence, soybean; settings: visual injury, 0 to 100 scale (0 no effect, 100 complete control)
Description: as §1, §2

[21] = test system: wheat (Triticum aestivum); test: Test C postemergence, wheat; settings: visual injury, 0 to 100 scale (0 no effect, 100 complete control)
Description: as §1, §2

[22] = test system: horseweed (Erigeron canadensis); test: Test C postemergence, horseweed; settings: visual injury, 0 to 100 scale (0 no effect, 100 complete control)
Description: as §1, §2

[23] = test system: barnyardgrass (Echinochloa crusgalli); test: Test D flooded paddy test, barnyardgrass; parameters: key: 0 = no effect, 100 = complete control; settings: 250 g ai/ha, Flood; applied to paddy water at 2-leaf stage; visual rating after 13 days; scale 0 (no effect) to 100 (complete control)
Experimental: (§3) Plant species in the flooded paddy test selected from barnyardgrass (Echinochloa crusgalli), ducksalad (Heteranthera limosa), rice (Oryza sativa), and sedge, umbrella (small-flower umbrella sedge, Cyperus difformis) were grown to the 2-leaf stage for testing. At time of treatment, test pots were flooded to 3 cm above the soil surface, treated by application of test compounds directly to the paddy water, and then maintained at that water depth for the duration of the test. Treated plants and controls were maintained in a greenhouse for 13 days, after which time all species were compared to controls and visually evaluated. Plant response ratings, summarized in Table B, are based on a scale of 0 to 100 where 0 is no effect and 100 is complete control. A dash (-) response means no test result.

[24] = test system: ducksalad (Heteranthera limosa); test: Test D flooded paddy test, ducksalad; parameters: key: 0 = no effect, 100 = complete control; settings: 250 g ai/ha, Flood; applied to paddy water at 2-leaf stage; visual rating after 13 days; scale 0 (no effect) to 100 (complete control)
Experimental: as §3

[25] = test system: rice (Oryza sativa); test: Test D flooded paddy test, rice; parameters: key: 0 = no effect, 100 = complete control; settings: 250 g ai/ha, Flood; applied to paddy water at 2-leaf stage; visual rating after 13 days; scale 0 (no effect) to 100 (complete control)
Experimental: as §3

[26] = test system: sedge, umbrella (small-flower umbrella sedge, Cyperus difformis); test: Test D flooded paddy test, umbrella sedge; parameters: key: 0 = no effect, 100 = complete control; settings: 250 g ai/ha, Flood; applied to paddy water at 2-leaf stage; visual rating after 13 days; scale 0 (no effect) to 100 (complete control)
Experimental: as §3

Cc1cc(C)c(N(COC(=O)C(C)(C)C)S(=O)(=O)C(F)(F)F)cc1N1CCC(OCC2CC2)C1=O (stereo not drawn) [Compound 53]
60: Plant response rating (0 to 100 scale), Goosegrass ([3]; 31 g ai/ha Preemergence) | Plant response rating (0 to 100 scale), Ragweed ([7]; 31 g ai/ha Preemergence) | Plant response rating (0 to 100 scale), Ryegrass, Italian ([8]; 31 g ai/ha Preemergence) | Plant response rating (0 to 100 scale), Wheat ([10]; 31 g ai/ha Preemergence) | Blackgrass plant response rating ([11]; 125 g ai/ha Postemergence) | Corn plant response rating ([12]; 125 g ai/ha Postemergence) | Goosegrass plant response rating ([14]; 31 g ai/ha Postemergence) | Soybean plant response rating ([20]; 125 g ai/ha Postemergence)
100: Plant response rating (0 to 100 scale), Goosegrass ([3]; 125 g ai/ha Preemergence) | Plant response rating (0 to 100 scale), Ryegrass, Italian ([8]; 125 g ai/ha Preemergence)
30: Plant response rating (0 to 100 scale), Pigweed, Palmer ([6]; 31 g ai/ha Preemergence) | Foxtail, Giant plant response rating ([13]; 31 g ai/ha Postemergence)
10: Plant response rating (0 to 100 scale), Foxtail, Giant ([2]; 31 g ai/ha Preemergence) | Oat, Wild plant response rating ([16]; 31 g ai/ha Postemergence)
98: Plant response rating, Sedge, Umbrella [26]
50: Plant response rating (0 to 100 scale), Corn ([1]; 125 g ai/ha Preemergence) | Plant response rating (0 to 100 scale), Kochia ([4]; 125 g ai/ha Preemergence) | Kochia plant response rating ([15]; 125 g ai/ha Postemergence) | Oat, Wild plant response rating ([16]; 125 g ai/ha Postemergence) | Soybean plant response rating ([20]; 31 g ai/ha Postemergence)
40: Plant response rating (0 to 100 scale), Soybean ([9]; 125 g ai/ha Preemergence) | Pigweed, Palmer plant response rating ([17]; 31 g ai/ha Postemergence) | Wheat plant response rating ([21]; 31 g ai/ha Postemergence) | Plant response rating, Barnyardgrass [23]
20: Plant response rating (0 to 100 scale), Soybean ([9]; 31 g ai/ha Preemergence) | Blackgrass plant response rating ([11]; 31 g ai/ha Postemergence) | Corn plant response rating ([12]; 31 g ai/ha Postemergence) | Kochia plant response rating ([15]; 31 g ai/ha Postemergence)
0: Plant response rating (0 to 100 scale), Corn ([1]; 31 g ai/ha Preemergence) | Plant response rating (0 to 100 scale), Kochia ([4]; 31 g ai/ha Preemergence) | Plant response rating (0 to 100 scale), Oat, Wild ([5]; 31 g ai/ha Preemergence) | Ryegrass, Italian plant response rating ([19]; 31 g ai/ha Postemergence)
80: Wheat plant response rating ([21]; 125 g ai/ha Postemergence) | Horseweed plant response rating ([22]; 31 g ai/ha Postemergence)
25: Plant response rating, Rice [25]
70: Plant response rating (0 to 100 scale), Ragweed ([7]; 125 g ai/ha Preemergence) | Pigweed, Palmer plant response rating ([17]; 125 g ai/ha Postemergence) | Ragweed plant response rating ([18]; 31 g ai/ha Postemergence) | Ryegrass, Italian plant response rating ([19]; 125 g ai/ha Postemergence) | Plant response rating, Ducksalad [24]
90: Plant response rating (0 to 100 scale), Foxtail, Giant ([2]; 125 g ai/ha Preemergence) | Plant response rating (0 to 100 scale), Oat, Wild ([5]; 125 g ai/ha Preemergence) | Plant response rating (0 to 100 scale), Pigweed, Palmer ([6]; 125 g ai/ha Preemergence) | Plant response rating (0 to 100 scale), Wheat ([10]; 125 g ai/ha Preemergence) | Foxtail, Giant plant response rating ([13]; 125 g ai/ha Postemergence) | Goosegrass plant response rating ([14]; 125 g ai/ha Postemergence) | Ragweed plant response rating ([18]; 125 g ai/ha Postemergence) | Horseweed plant response rating ([22]; 125 g ai/ha Postemergence)

Source: patent US20240158348A1, “HERBICIDAL CYCLIC AMIDES N-SUBSTITUTED WITH A HALOALKYLSULFONYLANILIDE GROUP” (FMC Corporation, priority 2021, published 2024)
